Laboratory results published in PubChem BioAssay (NCI).
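Exposure lasted 48 hours, with cells grown in 96-well plates and compounds tested at five concentrations. TGI: total growth inhibition.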

How the values were obtained:
Assay in all cases: DTP human tumour cell line panel, 48 h
UACC-257 melanoma = test system: UACC-257 melanoma
M14 melanoma = test system: M14 melanoma
SK-MEL-5 melanoma = test system: SK-MEL-5 melanoma
ACHN renal = test system: ACHN renal
SK-MEL-28 melanoma = test system: SK-MEL-28 melanoma
HT29 colon = test system: HT29 colon
786-0 renal = test system: 786-0 renal
IGROV1 ovarian = test system: IGROV1 ovarian
HCC-2998 colon = test system: HCC-2998 colon
UO-31 renal = test system: UO-31 renal
OVCAR-8 ovarian = test system: OVCAR-8 ovarian
A498 renal = test system: A498 renal
M19-MEL melanoma = test system: M19-MEL melanoma
SW-620 colon = test system: SW-620 colon
LOX IMVI melanoma = test system: LOX IMVI melanoma
EKVX NSCLC = test system: EKVX NSCLC
UACC-62 melanoma = test system: UACC-62 melanoma
SF-295 CNS = test system: SF-295 CNS
HOP-18 NSCLC = test system: HOP-18 NSCLC
SNB-78 CNS = test system: SNB-78 CNS
HOP-92 NSCLC = test system: HOP-92 NSCLC
SF-268 CNS = test system: SF-268 CNS
A549 NSCLC = test system: A549 NSCLC
LXFL 529 NSCLC = test system: LXFL 529 NSCLC
SF-539 CNS = test system: SF-539 CNS
COLO 205 colon = test system: COLO 205 colon
RPMI-8226 leukemia = test system: RPMI-8226 leukemia
CAKI-1 renal = test system: CAKI-1 renal
SN12C renal = test system: SN12C renal
NCI-H23 lung = test system: NCI-H23 lung
RXF 393 renal = test system: RXF 393 renal
KM20L2 colon = test system: KM20L2 colon
K-562 leukemia = test system: K-562 leukemia
SK-MEL-2 melanoma = test system: SK-MEL-2 melanoma
HCT-15 colon = test system: HCT-15 colon
HCT-116 colon = test system: HCT-116 colon
TK-10 renal = test system: TK-10 renal
NCI-H460 lung = test system: NCI-H460 lung
MOLT-4 leukemia = test system: MOLT-4 leukemia
SK-OV-3 ovarian = test system: SK-OV-3 ovarian
DMS 273 small cell lung = test system: DMS 273 small cell lung
RXF-631 renal = test system: RXF-631 renal
HOP-62 NSCLC = test system: HOP-62 NSCLC
KM12 colon = test system: KM12 colon
OVCAR-4 ovarian = test system: OVCAR-4 ovarian
DMS 114 small cell lung = test system: DMS 114 small cell lung
MALME-3M melanoma = test system: MALME-3M melanoma
DLD-1 colon = test system: DLD-1 colon
OVCAR-5 ovarian = test system: OVCAR-5 ovarian
SNB-75 CNS = test system: SNB-75 CNS
NCI-H226 lung = test system: NCI-H226 lung
U251 CNS = test system: U251 CNS
SR leukemia = test system: SR leukemia
CCRF-CEM leukemia = test system: CCRF-CEM leukemia
HL-60(TB) leukemia = test system: HL-60(TB) leukemia
OVCAR-3 ovarian = test system: OVCAR-3 ovarian
SNB-19 CNS = test system: SNB-19 CNS
NCI-H522 lung = test system: NCI-H522 lung

Cc1cc(C)c(/C=N/NS(=O)(=O)c2ccccc2)c(C)c1
TGI (UACC-257 melanoma): > 100 µM
TGI (M14 melanoma): > 100 µM
TGI (SK-MEL-5 melanoma): > 100 µM
TGI (ACHN renal): > 100 µM
TGI (SK-MEL-28 melanoma): > 100 µM
TGI (HT29 colon): > 100 µM
TGI (786-0 renal): > 100 µM
TGI (IGROV1 ovarian): > 100 µM
TGI (HCC-2998 colon): > 100 µM
TGI (UO-31 renal): > 100 µM
TGI (OVCAR-8 ovarian): > 100 µM
TGI (A498 renal): > 100 µM
TGI (M19-MEL melanoma): > 100 µM
TGI (SW-620 colon): > 100 µM
TGI (LOX IMVI melanoma): > 100 µM
TGI (EKVX NSCLC): > 100 µM
TGI (UACC-62 melanoma): > 100 µM
TGI (SF-295 CNS): > 100 µM
TGI (HOP-18 NSCLC): > 100 µM
TGI (SNB-78 CNS): > 100 µM
TGI (HOP-92 NSCLC): 95.9 µM
TGI (SF-268 CNS): > 100 µM
TGI (A549 NSCLC): > 100 µM
TGI (LXFL 529 NSCLC): > 100 µM
TGI (SF-539 CNS): > 100 µM
TGI (COLO 205 colon): > 100 µM
TGI (RPMI-8226 leukemia): > 100 µM
TGI (CAKI-1 renal): > 100 µM
TGI (SN12C renal): > 100 µM
TGI (NCI-H23 lung): > 100 µM
TGI (RXF 393 renal): > 100 µM
TGI (KM20L2 colon): > 100 µM
TGI (K-562 leukemia): > 100 µM
TGI (SK-MEL-2 melanoma): > 100 µM
TGI (HCT-15 colon): > 100 µM
TGI (HCT-116 colon): > 100 µM
TGI (TK-10 renal): > 100 µM
TGI (NCI-H460 lung): > 100 µM
TGI (MOLT-4 leukemia): > 100 µM
TGI (SK-OV-3 ovarian): > 100 µM
TGI (DMS 273 small cell lung): > 100 µM
TGI (RXF-631 renal): > 100 µM
TGI (HOP-62 NSCLC): > 100 µM
TGI (KM12 colon): > 100 µM
TGI (OVCAR-4 ovarian): > 100 µM
TGI (DMS 114 small cell lung): > 100 µM
TGI (MALME-3M melanoma): > 100 µM
TGI (DLD-1 colon): > 100 µM
TGI (OVCAR-5 ovarian): > 100 µM
TGI (SNB-75 CNS): > 100 µM
TGI (NCI-H226 lung): > 100 µM
TGI (U251 CNS): > 100 µM
TGI (SR leukemia): > 100 µM
TGI (CCRF-CEM leukemia): > 100 µM
TGI (HL-60(TB) leukemia): > 100 µM
TGI (OVCAR-3 ovarian): > 100 µM

CC(=O)O[C@@H]1CC[C@@]2(C)C(=O)C34C[C@@]5(C)C([C@@H](C)CCCC(C)C)CCC5(C)[C@](O)(O3)C(=O)[C@H]4C2C1(C)C (stereo partly drawn)
TGI (UACC-257 melanoma): 32.3 µM
TGI (M14 melanoma): 25.8 µM
TGI (SK-MEL-5 melanoma): 28.4 µM
TGI (ACHN renal): 27 µM
TGI (SK-MEL-28 melanoma): 35.6 µM
TGI (HT29 colon): 25.6 µM
TGI (786-0 renal): 25.6 µM
TGI (IGROV1 ovarian): 31.6 µM
TGI (HCC-2998 colon): 23.5 µM
TGI (UO-31 renal): 26 µM
TGI (OVCAR-8 ovarian): 32.9 µM
TGI (A498 renal): 38.5 µM
TGI (M19-MEL melanoma): 27.3 µM
TGI (SW-620 colon): 24.5 µM
TGI (LOX IMVI melanoma): 32.1 µM
TGI (EKVX NSCLC): 38.3 µM
TGI (UACC-62 melanoma): 32.6 µM
TGI (SF-295 CNS): 29.8 µM
TGI (HOP-18 NSCLC): 29.5 µM
TGI (SNB-78 CNS): 48.2 µM
TGI (HOP-92 NSCLC): 34.5 µM
TGI (SF-268 CNS): 34.9 µM
TGI (A549 NSCLC): 29.1 µM
TGI (LXFL 529 NSCLC): 30.4 µM
TGI (SF-539 CNS): 39.4 µM
TGI (COLO 205 colon): 27.8 µM
TGI (RPMI-8226 leukemia): 38.9 µM
TGI (CAKI-1 renal): 29.8 µM
TGI (SN12C renal): 26.7 µM
TGI (NCI-H23 lung): 27.4 µM
TGI (KM20L2 colon): 32.5 µM
TGI (K-562 leukemia): 29.9 µM
TGI (SK-MEL-2 melanoma): 37 µM
TGI (HCT-15 colon): 26.5 µM
TGI (HCT-116 colon): 27 µM
TGI (TK-10 renal): 30.5 µM
TGI (NCI-H460 lung): 18.5 µM
TGI (MOLT-4 leukemia): 28.8 µM
TGI (SK-OV-3 ovarian): 32.4 µM
TGI (DMS 273 small cell lung): 27.2 µM
TGI (RXF-631 renal): 34.2 µM
TGI (HOP-62 NSCLC): 33.1 µM
TGI (KM12 colon): 24 µM
TGI (OVCAR-4 ovarian): 26.2 µM
TGI (DMS 114 small cell lung): 33.6 µM
TGI (MALME-3M melanoma): 33.2 µM
TGI (SNB-19 CNS): 30.7 µM
TGI (DLD-1 colon): 34.7 µM
TGI (OVCAR-5 ovarian): 29.3 µM
TGI (SNB-75 CNS): 29.6 µM
TGI (NCI-H522 lung): 25.5 µM
TGI (NCI-H226 lung): 29.6 µM
TGI (U251 CNS): 27.4 µM
TGI (SR leukemia): 35.2 µM
TGI (CCRF-CEM leukemia): 19.8 µM
TGI (HL-60(TB) leukemia): 25.3 µM
TGI (OVCAR-3 ovarian): 25.1 µM
